pIC50: −log10 of the molar value. Values after ≈ are worked out from the molar mass of the structure shown.
Columns and labels:
K562 = experiment: Cytotoxicity against human K562 cells assessed as reduction in cell viability after 72 hrs by MTT assay; type: functional, cell-based; conditions: K562, 72 h
A549 = experiment: Cytotoxicity against human A549 cells assessed as reduction in cell viability after 72 hrs by MTT assay; type: functional, cell-based; conditions: A549, 72 h
Staphylococcus aureus = experiment: Antibacterial activity against Staphylococcus aureus ATCC 6538p after 24 hrs at 37 degC by broth dilution method; type: functional
Bacillus subtilis = experiment: Antibacterial activity against Bacillus subtilis ATCC 6633 after 24 hrs at 37 degC by broth dilution method; type: functional; conditions: ATCC 6633, 24 h
Kocuria rhizophila = experiment: Antibacterial activity against Kocuria rhizophila NBRC 12708 after 24 hrs at 37 degC by broth dilution method; type: functional; conditions: NBRC 12708, 24 h
Salmonella enterica = experiment: Antibacterial activity against Salmonella enterica ATCC 14028 after 24 hrs at 37 degC by broth dilution method; type: functional; conditions: ATCC 14028, 24 h
Proteus hauseri = experiment: Antibacterial activity against Proteus hauseri NBRC 3851 after 24 hrs at 37 degC by broth dilution method; type: functional; conditions: NBRC 3851, 24 h
Escherichia coli = experiment: Antibacterial activity against Escherichia coli ATCC 35270 after 24 hrs at 37 degC by broth dilution method; type: functional; conditions: ATCC 35270, 24 h
Candida albicans = experiment: Antifungal activity against Candida albicans ATCC 10231 after 48 to 72 hrs at 28 degC by serial 2-fold dilution method; type: functional
Trichophyton rubrum = experiment: Antifungal activity against Trichophyton rubrum IFO 9185 after 48 to 72 hrs at 28 degC by serial 2-fold dilution method; type: functional
[1] = test system: Trichophyton mentagrophytes; experiment: Antifungal activity against Trichophyton mentagrophytes IFO 40996 after 48 to 72 hrs at 28 degC by serial 2-fold dilution method; type: functional
Aspergillus fumigatus = experiment: Antifungal activity against Aspergillus fumigatus HIC 6094 after 48 to 72 hrs at 28 degC by serial 2-fold dilution method; type: functional
Sortase A = biological target: T1, Sortase A (Staphylococcus aureus, UniProt Q9S446); experiment: Inhibition of Staphylococcus aureus ATCC 6538p sortase A expressed in Escherichia coli using dabcyl-QALPETGEE-edans as substrate incubated for 1 hr by fluorescence spectrophotometry analysis
T1 sequence (Q9S446 whole entry): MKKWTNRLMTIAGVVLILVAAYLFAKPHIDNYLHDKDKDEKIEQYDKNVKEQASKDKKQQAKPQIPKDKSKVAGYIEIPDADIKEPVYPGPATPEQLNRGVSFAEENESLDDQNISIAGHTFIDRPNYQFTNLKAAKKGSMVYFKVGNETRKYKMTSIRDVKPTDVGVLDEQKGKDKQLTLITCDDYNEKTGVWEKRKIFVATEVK

[2] = Inhibition of Magnaporthe grisea Guy 11 isocitrate lyase using isocitrate as substrate by spectrophotometric based glyoxylate cycle assay; design: species or system Pyricularia grisea
[3] = biological target: Sodium/potassium-transporting ATPase; experiment: Inhibition of Na+/K+ -ATPase in human intrauterine growth restriction placental membrane using 3-O-methylfluorescein phosphate by fluorometric method in presence of Kcl; type: tissue-based

Structure (SMILES)	pIC50 (K562)	pIC50 (A549)	MIC (Staphylococcus aureus) [µg/mL]	MIC (Bacillus subtilis) [µg/mL]	MIC (Kocuria rhizophila) [µg/mL]	MIC (Salmonella enterica) [µg/mL]	MIC (Proteus hauseri) [µg/mL]	MIC (Escherichia coli) [µg/mL]	MIC (Candida albicans) [µg/mL]	MIC (Trichophyton rubrum) [µg/mL]	MIC [1] [µg/mL]	MIC (Aspergillus fumigatus) [µg/mL]	pIC50 (Sortase A)	IC50 [2] [µg/mL]	pIC50 [3]
C=C1CCC[C@H]2[C@](C)(CC3=CC(=O)C=C(N(C)CCS(=O)(=O)O)C3=O)[C@@H](C)CC[C@@]12C	5.24	5.21	128 (≈ 285 µM)	64 (≈ 142 µM)	64 (≈ 142 µM)	128 (≈ 285 µM)	128 (≈ 285 µM)	> 128	128 (≈ 285 µM)	> 128	128 (≈ 285 µM)	> 128	< 3.55	93.3 (≈ 208 µM)	4.02
C=C1CCC[C@@]23C4=C(C[C@]2(C)[C@@H](C)CC[C@@]13C)C(=O)C=C(NC)C4=O	5.40	5.31	> 128	> 128	2 (≈ 5.89 µM)	> 128	> 128	> 128	> 128	> 128	128 (≈ 377 µM)	> 128	< 3.42		< 3.42
C=C1CCC[C@H]2[C@](C)(CC3=CC(=O)C=C(NCCS(=O)(=O)O)C3=O)[C@@H](C)CC[C@@]12C	5.16	5.38	64 (≈ 147 µM)	32 (≈ 73.5 µM)	8 (≈ 18.4 µM)	32 (≈ 73.5 µM)	32 (≈ 73.5 µM)	> 128	16 (≈ 36.7 µM)	> 128	128 (≈ 294 µM)	> 128	3.57	43.5 (≈ 99.9 µM)	4.09
C=C1CCC[C@@]23Oc4ccc(O)cc4C[C@]2(C)[C@@H](C)CC[C@@]13C	5.32	5.23	2 (≈ 6.4 µM)	1 (≈ 3.2 µM)	1 (≈ 3.2 µM)	1 (≈ 3.2 µM)	2 (≈ 6.4 µM)	> 128	> 128	> 128	8 (≈ 25.6 µM)	> 128	< 3.39		4.16
C=C1CCC[C@@]23C4=C(C[C@]2(C)[C@@H](C)CC[C@@]13C)C(=O)C=C(NCCS(=O)(=O)O)C4=O	5.96	5.64	> 128	> 128	128 (≈ 295 µM)	> 128	> 128	> 128	> 128	> 128	> 128	> 128	< 3.53		3.55
C=C1CCC[C@@]23C4=C(C[C@]2(C)[C@@H](C)CC[C@@]13C)C(=O)C(OC)=CC4=O	6.15	5.48	> 128	16 (≈ 47 µM)	8 (≈ 23.5 µM)	16 (≈ 47 µM)	16 (≈ 47 µM)	> 128	> 128	> 128	> 128	> 128		> 128	< 3.42
O=C(O)CC[N+](=O)[O-]														2.5 (≈ 21 µM)	
C[C@@H]1[C@H](O)[C@@H](C)/C=C/C=C/C=C/C=C/C=C/C=C/C=C/[C@H](O[C@@H]2O[C@H](C)[C@@H](O)[C@H](N)[C@@H]2O)C[C@@H]2O[C@](O)(C[C@@H](O)C[C@@H](O)[C@H](O)CC[C@@H](O)C[C@@H](O)CC(=O)O[C@H]1C)C[C@H](O)[C@H]2C(=O)O [AMPHOTERICIN B]									0.5 (≈ 0.541 µM)	1 (≈ 1.08 µM)	4 (≈ 4.33 µM)	8 (≈ 8.66 µM)			
CC1(C)S[C@@H]2[C@H](NC(=O)[C@H](N)c3ccccc3)C(=O)N2[C@H]1C(=O)O [AMPICILLIN]			0.13 (≈ 0.372 µM)	< 0.06	< 0.06	0.06 (≈ 0.172 µM)	< 0.06	4 (≈ 11.4 µM)							
C=C1CCC[C@H]2[C@](C)(Cc3cc(O)ccc3O)[C@@H](C)CC[C@@]12C [ARENAROL]	5.47	5.43	4 (≈ 12.7 µM)	4 (≈ 12.7 µM)	4 (≈ 12.7 µM)	4 (≈ 12.7 µM)	2 (≈ 6.36 µM)	> 128	4 (≈ 12.7 µM)	4 (≈ 12.7 µM)	8 (≈ 25.4 µM)	> 128	< 3.39		4.94
COc1ccc2cc3[n+](cc2c1OC)CCc1cc2c(cc1-3)OCO2 [BERBERINE CHLORIDE]													3.96		
